Values of other authors as cited in US20030195171A1 (priority 2002, published 2003).

Legend:
vitamin D receptor = target: T1, vitamin D receptor (Homo sapiens, UniProt P11473); settings: relative to 1α,25-dihydroxy-cholecalciferol
T1 sequence (P11473 1-427): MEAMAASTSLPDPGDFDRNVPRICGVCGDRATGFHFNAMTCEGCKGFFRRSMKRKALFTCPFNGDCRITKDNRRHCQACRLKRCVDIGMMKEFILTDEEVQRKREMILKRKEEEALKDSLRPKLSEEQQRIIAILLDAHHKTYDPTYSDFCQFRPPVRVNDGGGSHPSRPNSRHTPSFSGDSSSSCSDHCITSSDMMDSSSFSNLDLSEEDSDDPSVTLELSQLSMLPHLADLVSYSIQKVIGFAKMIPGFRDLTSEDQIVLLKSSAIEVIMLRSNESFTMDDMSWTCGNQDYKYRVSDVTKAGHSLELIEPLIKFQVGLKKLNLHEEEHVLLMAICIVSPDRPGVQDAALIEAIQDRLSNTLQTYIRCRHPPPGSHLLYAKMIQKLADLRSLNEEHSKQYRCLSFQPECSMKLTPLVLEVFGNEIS

[1] = compared to placebo

## C=C1CC[C@H](O)C/C1=C/C=C1\CCC[C@]2(C)[C@@H]([C@H](C)CCCC(C)(C)O)CC[C@@H]12 [25-hydroxy-cholecalciferol]
Vitamin D receptor
  Intrinsic activity, fold lower than that of 1α,25-dihydroxy-cholecalciferol: about 100 fold

## NCCCC(O)(P(=O)(O)O)P(=O)(O)O [alendronate, 4-Amino-1-hydroxybutylidene-1,1-bisphosphonic acid monosodium trihydrate]
[1]; administered over a substantial period of time
  Decrease in the risk of vertebral fractures: at least 40%
[1]; total number of vertebral fractures
  Reduction in vertebral fracture rate per 100 patients: at least 50%
